The numbers were not newly measured in patent US20250381145A1, “COMBINATION OF SGLT2 INHIBITORS AND MINERALCORTICOID RECEPTOR MODULATORS FOR USE IN TREATMENT OF CARDIORENAL DISEASES” (ASTRAZENECA AB, priority 2022, published 2025), which cites them from elsewhere.

For `CNC(=O)C[C@H]1COc2cc(F)ccc2N1C(=O)c1ccc2c(c1)NC(=O)CO2` [AZD9977, balcinrenone], the “solubility (BCS characterisation)” value was “low”.

With `CCOc1ccc(Cc2cc([C@@H]3O[C@H](CO)[C@@H](O)[C@H](O)[C@H]3O)ccc2Cl)cc1` [dapagliflozin], the “solubility (BCS characterisation)” value is “high”.
